Test results reported in patent publication US20240252657A1, “HEMTAC SMALL-MOLECULE DEGRADATION AGENT AND APPLICATION THEREOF” (SHANDONG UNIVERSITY, priority 2022, published 2024).

Assays:
CDK4/6 = assay: Western blot, CDK4/6 protein level in B16F10 cells; type: cell-based, mouse
Procedure: (§1) After B16F10 cells were treated with the compound at different concentrations and for different periods of time, the levels of CDK4 and CDK6 proteins in the cells were measured by Western blot. Firstly, intracellular proteins were extracted and quantified. The cells were lysed with RIPA cell lysate (with a protease inhibitor), and proteins were collected, which were quantified by a BCA protein quantitative determination kit and quantified to the same concentration. Protein denaturation: The proteins were placed in a water bath at 100° C. for 8 minutes to denature the proteins. Loading and gel electrophoresis: The loading amount per cell was generally 20 μL. […] Membrane transfer: The membrane transfer was carried out using a wet transfer instrument, at a constant current of 250 mA for 90 minutes. The PVDF membrane should be soaked with methanol beforehand. Blocking: The PVDF membrane was placed in BSA blocking buffer for 1 h (with slow shaking in a shaker). Incubation with primary antibody: The primary antibody was diluted according to the instructions. The primary antibody was added, followed by incubation overnight at 4° C. Membrane washing: The membrane was washed with TBST washing buffer for 3 times, each time for 10 minutes. Incubation with secondary antibody: The second antibody was added, followed by incubation in a shaker at room temperature for 1 h. […]

CDK4 = target: T1, CDK4 (Mus musculus, UniProt P30285); assay: Western blot, CDK4 degradation in B16F10 cells; type: cell-based; conditions: read-out: DC50 (drug concentration leading to 50% protein degradation) of CDK4
T1 construct: degradation of CDK4 and CDK6 in B16F10 cells; endogenous in cells; host or cells: B16F10
T1 sequence (P30285 1-303): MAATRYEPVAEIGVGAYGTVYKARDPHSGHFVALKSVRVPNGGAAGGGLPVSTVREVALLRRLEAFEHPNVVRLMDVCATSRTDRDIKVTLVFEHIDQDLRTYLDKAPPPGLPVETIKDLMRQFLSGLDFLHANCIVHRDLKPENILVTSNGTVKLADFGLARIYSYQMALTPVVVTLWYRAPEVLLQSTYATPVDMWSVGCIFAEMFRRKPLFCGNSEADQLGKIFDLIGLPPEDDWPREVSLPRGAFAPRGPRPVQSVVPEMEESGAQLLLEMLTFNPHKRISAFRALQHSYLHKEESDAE
Procedure: as §1

mouse B16F10 melanoma = assay: Anti-tumor experiment in mice in vivo, B16F10 melanoma xenograft model
Procedure: B16F10 cells (10^6 cells/mouse) were injected subcutaneously into the forelimb of C57BL/6 mice to establish an xenograft model of mouse B16F10 melanoma. When the tumor volume reached 100-200 mm^3, the mice were randomly divided into four groups (n=6). The compound was injected intraperitoneally every day for two weeks, and the body weights and tumor volumes of the mice were measured every two days. The tumor length and width were measured along two orthogonal axes with a vernier caliper, and the tumor volume in the mouse was calculated based on an equation V (mm^3)=(length×width^2)/2.

CDK6 = target: T2, CDK6 (Mus musculus, UniProt Q64261); assay: Western blot, CDK6 degradation in B16F10 cells; type: cell-based; conditions: read-out: DC50 (drug concentration leading to 50% protein degradation) of CDK6
T2 construct: degradation of CDK4 and CDK6 in B16F10 cells; endogenous in cells; host or cells: B16F10
T2 sequence (Q64261 whole entry): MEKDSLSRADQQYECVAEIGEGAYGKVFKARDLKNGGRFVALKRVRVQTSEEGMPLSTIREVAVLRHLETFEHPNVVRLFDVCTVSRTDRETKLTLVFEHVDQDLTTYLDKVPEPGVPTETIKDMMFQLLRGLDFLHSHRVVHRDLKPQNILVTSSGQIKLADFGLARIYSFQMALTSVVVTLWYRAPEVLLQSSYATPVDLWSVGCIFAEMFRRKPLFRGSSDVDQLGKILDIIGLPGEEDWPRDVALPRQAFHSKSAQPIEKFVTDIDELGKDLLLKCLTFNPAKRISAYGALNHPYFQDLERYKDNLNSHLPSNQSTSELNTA
Procedure: as §1

## COc1c(C)cnc(Cn2cc(C#CCCn3cc(CNC(=O)CN4CCN(c5ccc(Nc6ncc7c(C)c(C(C)=O)c(=O)n(C8CCCC8)c7n6)nc5)CC4)nn3)c3c(Cl)nc(N)nc32)c1C [Compound 26]
CDK4/6; B16F10 cells, 0.5 μM
  time within which degradation of CDK4/6 was induced: ≤ 12 h
CDK4/6; B16F10 melanoma cells, 24 h
  degradation activity (rank among the HEMTACs): highest degradation activity
CDK4
  DC50: ~26 nM
Mouse B16F10 melanoma; 20 mg/kg, intraperitoneally every day for two weeks
  anti-tumor effect compared with BIIB021 (20 mg/kg): better than that of HSP90 inhibitor BIIB021
Mouse B16F10 melanoma; 40 mg/kg, intraperitoneally every day for two weeks
  growth of melanoma: significantly inhibit the growth of melanoma
Mouse B16F10 melanoma; all treatment groups
  other signs of toxicity: no other signs of toxicity
Mouse B16F10 melanoma; intraperitoneally every day for two weeks
  body weight of mice: slight weight loss
Mouse B16F10 melanoma; mouse B16F10 melanoma model, FIG. 4 legend, no dose given
  anti-melanoma effect in vivo: significant anti-melanoma effect
CDK6
  DC50: ~19 nM
